Data taken from patent US9108923B2, “Compounds, compositions, and methods for cancer therapy” (The Broad Institute, Inc., priority 2012, dated 2015).
pEC50: −log10 of the molar value. Like-named read-outs stand apart in the source and are kept apart here.

Experiments:
[1] = tested on: H1703; assay: ATP Assay (CellTiter-Glo), cellular ATP levels as surrogate for cell viability; format: cell-based, human; conditions: cellular ATP levels, 48 h, read-out: EC50 H1703
Procedure: (§1) ATP Assay. […] At that time, media was removed and replaced with a solution of CellTiter-Glo reagent (Promega) in PBS. After ten minutes, luminescence was read using an EnVision multilabel plate reader (Perkin-Elmer) and signal intensity was calculated relative to in-plate DMSO control wells.
(§2) We next sought to determine the performance of the synthetic analogs relative to PL in cells. […] As a second assay, effects of compound treatments on ATP levels, a surrogate for cell viability, were measured after 48 hours.
(§3) Assays were performed in 384-well plates on two human cancer cell lines, H1703 (lung) and HeLa (cervix).

[2] = tested on: HeLa; assay: as above; format: cell-based, human; conditions: cellular ATP levels, 48 h, read-out: EC50 HeLa
Procedure: as §1, §2, §3

[3] = Homo sapiens, NCI-H1703, Table 1
[4] = Homo sapiens, NCI-H1703, Table 2

Row | Structure (SMILES) | pEC50 [1, 4] | pEC50 ([2]; Homo sapiens, HeLa, Table 2) | other results
1 | COC(=O)CSC1CCN(C(=O)/C=C/c2cc(OC)c(OC)c(OC)c2)C(=O)C1 (stereo not drawn) [Cpd. 7] |  |  | pEC50 [1, 3]: 5.10; pEC50 ([2]; Homo sapiens, HeLa, Table 1): < 4.70
2 | COc1cc(/C=C/C(=O)N2C(=O)C=CCC2c2ccsc2)cc(OC)c1OC (stereo not drawn) [Cpd. 7] | 5.70 | 5.70 | 
3 | C=C(C)C(=O)NC(=O)/C=C/C [Cpd. 76, (E)-N-methacryloylbut-2-enamide] | 5.10 | < 4.70 | 
4 | COc1cc(/C=C/C(=O)N2CCC=C(C)C2=O)cc(OC)c1OC [compound 3, (E)-3-methyl-1-(3-(3,4,5-trimethoxyphenyl)prop-2-enoyl)-5,6-dihydropyridin-2(1H)-one] |  |  | pEC50 [1, 3]: < 4.70; pEC50 ([1]; Table 2): < 4.70; pEC50 ([2]; Homo sapiens, HeLa, Table 1): < 4.70; pEC50 ([2]; Table 2): < 4.70
5 | COc1cc(/C=C/C(=O)N2C(=O)C=CCC2c2cccnc2)cc(OC)c1OC (stereo not drawn) [compound 8] | 5.52 | 5.22 | 
6 | COc1cc(/C=C/C(=O)N2CCC(C)=CC2=O)cc(OC)c1OC [compound 8] |  |  | pEC50 [1, 3]: < 4.70; pEC50 ([2]; Homo sapiens, HeLa, Table 1): < 4.70
7 | C/C(=C\C(=O)N1CCC=CC1=O)c1ccccc1 [compound 9] |  |  | pEC50 [1, 3]: 4.85; pEC50 ([2]; Homo sapiens, HeLa, Table 1): < 4.70
8 | COc1ccc(C2CC=CC(=O)N2C(=O)/C=C/c2cc(OC)c(OC)c(OC)c2)cc1 (stereo not drawn) [compound 9] | 5.40 | 5.15 | 
9 | COc1cc(/C=C/C(=O)N2C(=O)C=CCC2c2cccs2)cc(OC)c1OC (stereo not drawn) [compound 10] | 5.70 | 5.40 | 
10 | O=C1C=CCCN1C(=O)c1cc2ccccc2s1 [compound 10] |  |  | pEC50 [1, 3]: 4.74; pEC50 ([2]; Homo sapiens, HeLa, Table 1): < 4.70
11 | COc1cc(/C=C/C(=O)N2C(=O)C=CCC2C2CCCCC2)cc(OC)c1OC (stereo not drawn) [compound 11] | 5.22 | 5.15 | 
12 | COc1cc2c(c(OC)c1OC)CCC(C(=O)N1CCC=CC1=O)=C2 [compound 11] |  |  | pEC50 [1, 3]: 4.85; pEC50 ([2]; Homo sapiens, HeLa, Table 1): < 4.70
13 | COc1cc(/C=C/C(=O)N2C(=O)C=CCC2C2CCCC2)cc(OC)c1OC (stereo not drawn) [compound 12] | 5.22 | 5.22 | 
14 | O=C1C=CCCN1C(=O)/C=C/c1ccccc1Cl [compound 13] |  |  | pEC50 [1, 3]: 5.40; pEC50 ([2]; Homo sapiens, HeLa, Table 1): 5.12
15 | COc1cc(/C=C/C(=O)N2C(=O)C=CCC2c2ccccc2)cc(OC)c1OC (stereo not drawn) [compound 14] |  |  | pEC50 [1, 3]: 5.44; pEC50 ([2]; Homo sapiens, HeLa, Table 1): 5.17
16 | O=Cc1ccc(/C=C/C(=O)N2CCC=CC2=O)cc1 [compound 14] | 5.30 | 5.10 | 
17 | COc1cc(/C=C/C(=O)N2CC(c3cccs3)C=CC2=O)cc(OC)c1OC (stereo not drawn) [compound 15] |  |  | pEC50 [1, 3]: 5.19; pEC50 ([2]; Homo sapiens, HeLa, Table 1): 4.82
18 | O=C1C=CCCN1C(=O)c1cc2ccccc2o1 [compound 15] | 5.00 | 4.70 | 
19 | O=C1C=CCCN1S(=O)(=O)/C=C/c1ccccc1 [compound 16] |  |  | pEC50 [1, 3]: 5.57; pEC50 ([2]; Homo sapiens, HeLa, Table 1): 5.39

Row | Structure (SMILES) | pEC50 [1, 4] | pEC50 ([2]; Homo sapiens, HeLa, Table 2) | other results
20 | COc1cc(/C=C/C(=O)N2CCC=C(C#CC3CCCC3)C2=O)cc(OC)c1OC [compound 17] | 6.00 | 5.52 | 
21 | COc1cc(/C=C/C(=O)N2CCC=C(c3ccccc3)C2=O)cc(OC)c1OC [compound 18] |  |  | pEC50 [1, 3]: < 4.70; pEC50 ([2]; Homo sapiens, HeLa, Table 1): < 4.70
22 | O=C1C=CCCN1C(=O)/C=C/c1cccc(C(F)(F)F)c1 [compound 18] | 5.30 | 5.22 | 
23 | COC1=CC(=O)N(C(=O)/C=C/c2cc(OC)c(OC)c(OC)c2)C1 [compound 19] |  | < 4.70 | 
24 | COc1cc(/C=C/C(=O)N2CCC=C(c3ccc(F)cc3)C2=O)cc(OC)c1OC [compound 20] | < 4.70 | < 4.70 | 
25 | CCC1=C(C)CN(C(=O)/C=C/c2cc(OC)c(OC)c(OC)c2)C1=O [compound 21] | < 4.70 | < 4.70 | 
26 | O=C1C=CCCN1C(=O)c1ccc2ccccc2c1 [compound 22] | 5.05 | 4.70 | 
27 | COc1cc(/C=C/C(=O)N2CCC=CC2=O)c(F)c(OC)c1OC [compound 23] | 6.10 | 5.52 | 
28 | COc1cc(/C=C/C(=O)N2CCC=C(c3cccnc3)C2=O)cc(OC)c1OC [compound 24] | < 4.70 | < 4.70 | 
29 | COc1cc(/C=C/C(=O)N2CCC(C)=CC2=O)cc(OC)c1OC [compound 26] |  |  | pEC50 ([1]; Table 2): < 4.70; pEC50 ([2]; Table 2): < 4.70
30 | C/C(=C\C(=O)N1CCC=CC1=O)c1ccccc1 [compound 27] |  |  | pEC50 ([1]; Table 2): 4.85; pEC50 ([2]; Table 2): < 4.70
31 | O=C1C=CCCN1C(=O)c1cc2ccccc2s1 [compound 28] |  |  | pEC50 ([1]; Table 2): 4.74; pEC50 ([2]; Table 2): < 4.70
32 | CCCCC#CC1=CCCN(C(=O)/C=C/c2cc(OC)c(OC)c(OC)c2)C1=O [compound 31] | 6.05 | 5.70 | 
33 | COc1cc(/C=C/C(=O)N2CCC=CC2=O)cc(OC)c1OCCN(C)C [compound 32] | 5.82 | 5.40 | 
34 | O=C1C=CCCN1C(=O)c1cc2ccccc2oc1=O [compound 34] | 5.30 | 4.82 | 
35 | COc1cc(/C=C/C(=O)N2CCC=C(C#Cc3ccccc3Cl)C2=O)cc(OC)c1OC [compound 35] | 6.22 | 5.82 | 
36 | COc1cc(/C=C/C(=O)N2CCC=C(C#CC3(O)CCCCC3)C2=O)cc(OC)c1OC [compound 36] | 6.30 | 5.82 | 
37 | COc1cc(/C=C(\C)C(=O)N2CCC=CC2=O)cc(OC)c1OC [compound 37] | 5.40 | 4.74 | 
38 | COc1cc(/C=C/C(=O)N2CCC=C(C#Cc3cccc(Cl)c3)C2=O)cc(OC)c1OC [compound 40] | 5.82 | 5.30 | 

Row | Structure (SMILES) | pEC50 [1, 4] | pEC50 ([2]; Homo sapiens, HeLa, Table 2) | other results
39 | COc1cc(/C=C/C(=O)N2CCC=CC2=O)cc(OC)c1OCCN(CCOc1c(OC)cc(/C=C/C(=O)N2CCC=CC2=O)cc1OC)CCOc1c(OC)cc(/C=C/C(=O)N2CCC=CC2=O)cc1OC [compound 41] | 7.00 | 6.52 | 
40 | CC1=C(C(=O)N2CCC=CC2=O)Cc2ccccc21 [compound 42] | 4.92 | < 4.70 | 
41 | COc1cc(/C=C/C(=O)N2CCC=C(C#CC(C)(C)C)C2=O)cc(OC)c1OC [compound 43] | 6.15 | 5.92 | 
42 | COc1cc(/C=C/C(=O)N2CCC=C(C3CCCCC3)C2=O)cc(OC)c1OC [compound 44] | < 4.70 | < 4.70 | 
43 | COc1cc(/C=C/C(=O)N2CCC=C(C#CC3=CCCCC3)C2=O)cc(OC)c1OC [compound 45] | 5.52 | 5.30 | 
44 | COc1cc(/C=C/C(=O)N2CC=CCC2=O)cc(OC)c1OC [compound 46] | 4.89 | < 4.70 | 
45 | COc1cc(/C=C/C(=O)N2CCC(C)=C(C)C2=O)cc(OC)c1OC [compound 47] | < 4.70 | < 4.70 | 
46 | COc1cc(/C=C/C(=O)N2CCC=C(C#Cc3ccc(OC(F)(F)F)cc3)C2=O)cc(OC)c1OC [compound 48] | 6.15 | 5.52 | 
47 | O=C1C=CCCN1C(=O)/C=C/c1ccccc1Cl [compound 49] |  |  | pEC50 ([1]; Table 2): 5.40; pEC50 ([2]; Table 2): 5.12
48 | COc1cc(/C=C/C(=O)N2C(=O)C=CCC2c2ccccc2)cc(OC)c1OC (stereo not drawn) [compound 50] |  |  | pEC50 ([1]; Table 2): 5.44; pEC50 ([2]; Table 2): 5.17
49 | COc1cc(/C=C/C(=O)N2CC(c3cccs3)C=CC2=O)cc(OC)c1OC (stereo not drawn) [compound 51] |  |  | pEC50 ([1]; Table 2): 5.19; pEC50 ([2]; Table 2): 4.82
50 | COc1cc(/C=C/C(=O)N2CCC=C(c3ccccc3)C2=O)cc(OC)c1OC [compound 54] |  |  | pEC50 ([1]; Table 2): < 4.70; pEC50 ([2]; Table 2): < 4.70
51 | COc1cc(/C=C/C(=O)N2CCC=C(I)C2=O)cc(OC)c1OC [compound 55] | 5.52 | < 4.70 | 
52 | CCCCCCCCCCC#CC1=CCCN(C(=O)/C=C/c2cc(OC)c(OC)c(OC)c2)C1=O [compound 57] | 5.40 | 5.05 | 
53 | COc1cc(/C=C(\F)C(=O)N2CCC=CC2=O)cc(OC)c1OC [compound 58] | 5.10 | 4.96 | 
54 | COc1cc(/C=C/C(=O)N2CCC=C(C#CC3CCCCC3)C2=O)cc(OC)c1OC [compound 59] | 5.82 | 5.52 | 
55 | COc1cc(CCC(=O)N2CCCCC2=O)cc(OC)c1OC [compound 65] |  | < 4.70 | 
56 | COc1cc(/C=C/C(=O)N2CCC=C(c3ccc(C)cc3)C2=O)cc(OC)c1OC [compound 66] |  | < 4.70 | 
